Source: patent publication US7998932B2, “Inhibition of angiogenesis by neutrophil alpha-defensins” (The Trustees of the University of Pennsylvania, priority 2003, dated 2011)

Test system: HUVEC
Assay: HUVEC proliferation by BrdU incorporation
Assay type: cell-based, human
Settings: over a period of 24 hours; 10 ng/ml VEGF or 1 μM sphingosine-1-phosphate
Description: Cell proliferation: Endothelial cell proliferation was determined by measuring the incorporation of bromodeoxyuridine (BrdU). Endothelial cells were plated onto 96-well plates and incubated for 12 hours after which the medium was changed to MCDB-131 containing 0.05% FCS. Cells were then incubated for 24 hours in the absence or presence of stimuli or competitors. BrdU was added to the medium during the last 6 hours of incubation. The cells were then fixed and cell proliferation was quantified with a standardized calorimetric immunoassay (Roche Diagnostics, Mannheim, Germany) according to the manufacturer's instructions.

Compound | increase of DNA synthesis in HUVEC
CCCCCCCCCCCCC/C=C/[C@@H](O)[C@@H](N)COP(=O)(O)O [sphingosine-1-phosphate] | approximately two-fold
VEGF | approximately two-fold
